# Reference: patent US4966973A, “2-substituted coumaran derivatives” (Takeda Chemical Industries, Ltd., priority 1988, dated 1990)
# Molecular target: T1, 5-lipoxygenase (Rattus norvegicus, UniProt P12527)
# T1 construct: endogenous in cells; host or cells: RBL-1 (rat basophilic leukemia) cells
# T1 sequence (P12527 1-673): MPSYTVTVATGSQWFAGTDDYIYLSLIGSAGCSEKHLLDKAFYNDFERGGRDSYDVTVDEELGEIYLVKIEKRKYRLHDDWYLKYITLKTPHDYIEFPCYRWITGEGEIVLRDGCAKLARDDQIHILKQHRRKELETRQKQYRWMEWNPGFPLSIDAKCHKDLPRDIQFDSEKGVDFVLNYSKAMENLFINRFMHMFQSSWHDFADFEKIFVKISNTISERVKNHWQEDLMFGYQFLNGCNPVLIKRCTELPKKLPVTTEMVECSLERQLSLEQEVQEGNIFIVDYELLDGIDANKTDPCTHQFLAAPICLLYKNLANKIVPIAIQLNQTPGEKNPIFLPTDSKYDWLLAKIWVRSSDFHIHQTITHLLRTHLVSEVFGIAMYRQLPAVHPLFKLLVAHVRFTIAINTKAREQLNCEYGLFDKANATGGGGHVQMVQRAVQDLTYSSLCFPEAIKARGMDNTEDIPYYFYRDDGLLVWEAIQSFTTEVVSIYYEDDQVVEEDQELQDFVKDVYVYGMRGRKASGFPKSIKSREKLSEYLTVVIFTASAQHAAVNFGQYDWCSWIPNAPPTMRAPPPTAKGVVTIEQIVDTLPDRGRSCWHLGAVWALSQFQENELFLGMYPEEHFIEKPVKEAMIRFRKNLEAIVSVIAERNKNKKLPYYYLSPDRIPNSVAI
# Test: Effect of Inhibiting 5-Lipoxygenase (inhibition of 5-HETE production in RBL-1 cells, HPLC)
# Assay type: cell-based
# Details: arachidonic acid + A-23187, 37° C., 20 min, read-out: % Inhibition (IE) of 5-HETE production; for inhibition at 10 µM: 10^-5 M; for inhibition at 1 µM: 10^-6 M; for inhibition at 0.1 µM: 10^-7 M; for inhibition at 0.01 µM: 10^-8 M
# Method: In 0.5 ml of MCM (mast cell medium) was suspended 10^7 of rat basophilic leukemia (RBL-1) cells. To this suspension was added the test solution previously prepared [consisting of 0.5 ml of MCM, […] of arachidonic acid, 10 μg of calcium ionophore A-23187 and the test compound (final concentrations 10 μM, 1 μM, 0.1 μM and 0.01 μM)], and the reaction was allowed to proceed at 37° C. for 20 minutes. To the reaction mixture was added 4 ml of ethanol, which was shaken sufficiently, followed by leaving the resultant mixture standing for 10 minutes at room temperatures. The resultant mixture was subjected to a centrifuge (2000 rpm) for 10 minutes, then the supernatant was separated. Thus-separated supernatant was concentrated to dryness under reduced pressure. To the concentrate was added 0.5 ml of a 60% aqueous methanol. A 100 μl portion of this solution was taken and subjected to high performance liquid chromatography to determine 5-HETE (5-hydroxyeicosatetraenoic acid) quantitatively. UV absorption of 5-HETE at 237 nm was measured with a UV absorption monitor. The inhibitory effect (IE) of 5-HETE is expressed by (1-b/a) x 100. In this formula, a means the height of the peak or the area of the peak in the case of presence of no compound (I), while b means the height of the peak or the area of the peak in the case of containing the compound (I).
inhibition at 10 µM,inhibition at 1 µM,inhibition at 0.1 µM,inhibition at 0.01 µM,Structure (SMILES)
100%,100%,64%,13%,Cc1c(C)c2c(c(C)c1O)CC(CSCCC(=O)O)O2 (centres unmarked) [Compound 1]
100%,100%,100%,42%,Cc1c(C)c2c(c(C)c1O)CC(CSc1ccccc1)O2 (centres unmarked) [Compound 3]
100%,100%,48%,24%,CCCCCCCCSCC1Cc2c(C)c(O)c(C)c(C)c2O1 (centres unmarked) [Compound 5]
100%,100%,45%,–,Cc1c(C)c2c(c(C)c1O)CC(CSc1ccccn1)O2 (centres unmarked) [Compound 7]
100%,100%,96%,8%,Cc1c(C)c2c(c(C)c1O)CC(CSc1ccc(F)cc1)O2 (centres unmarked) [Compound 9]
100%,100%,19%,–,Cc1c(C)c2c(c(C)c1O)CC(CSc1ccc3ccccc3c1)O2 (centres unmarked) [Compound 11]
100%,100%,8%,–,Cc1c(C)c2c(c(C)c1O)CC(C[S+]([O-])c1ccccc1)O2 (centres unmarked) [Compound 13]
100%,100%,19%,10%,Cc1c(C)c2c(c(C)c1O)CC(CS(=O)(=O)c1ccccc1)O2 (centres unmarked) [Compound 15]
100%,100%,88%,–,Cc1c(C)c2c(c(C)c1O)CC(CSCc1ccccc1)O2 (centres unmarked) [Compound 17]
100%,99%,87%,-5%,Cc1c(C)c2c(c(C)c1O)CC(C)(CSc1ccccc1)O2 (centres unmarked) [Compound 19]
100%,100%,98%,18%,Cc1c(C)c2c(c(C)c1O)CC(C)(CSc1ccc(F)cc1)O2 (centres unmarked) [Compound 21]
95%,99%,94%,14%,Cc1c(C)c2c(c(C)c1O)CC(C)(CNCCc1ccccc1)O2 (centres unmarked) [Compound 25]
